In ChEMBL document CHEMBL1156829 (Proc Natl Acad Sci U S A, 2008):

Experiments:
[1] = system: Plasmodium falciparum; experiment: NOVARTIS: Inhibition of Plasmodium falciparum W2 (drug-resistant) proliferation in erythrocyte-based infection assay; assay type: functional, organism-based; conditions: Plasmodium falciparum, W2; read-out: EC50
[2] = system: Plasmodium falciparum; experiment: NOVARTIS: Inhibition of Plasmodium falciparum 3D7 (drug-susceptible) proliferation in erythrocyte-based infection assay; assay type: functional, organism-based; conditions: Plasmodium falciparum, 3D7
[3] = NOVARTIS: Cytotoxicity against human hepatocellular carcinoma cell line (Huh7); assay type: toxicity, cell-based, Huh-7; conditions: Huh7 cells (hepatocellular carcinoma cell line)

| SMILES | EC50 [1] [µM] | EC50 [2] [µM] | CC50 [3] [µM] |
| --- | --- | --- | --- |
| COc1ccc(-c2cc3c(nn2)-c2ccccc2C3=O)cc1 | 1.64 | 3.84 | 65.8 |
| Cc1nc2ccc(Br)cc2c(O)c1CC(C)C | 2.53 | 2.73 | > 100 |
| COc1ccc2nc(NC(N)=NC(=O)Nc3ccccc3)nc(C)c2c1 | 0.896 | 0.688 | 34.8 |
| CCCN(CCC)CCCNc1ccc(C(=O)Nc2ccc(C)c(F)c2)cc1[N+](=O)[O-] | 0.268 | 0.146 | 10.6 |
| Cc1c(CN2CCC(N3CCC(C(=O)NC4CC4)CC3)CC2)[nH]c2c(Cl)cccc12 | 1.4 | 0.345 | 56.5 |
| COc1ccc(C(=O)Nc2nonc2-c2ccc(OC)c(OC)c2)cc1Cl | 2.54 | 1.79 | > 100 |
| CSc1nc(N)c2c3c(sc2n1)CCCC3 | > 0.253 | > 1.25 | > 10 |
| O=C(NCc1ccccc1)c1cnc(NCCCn2ccnc2)nc1NCCc1ccccc1 | 0.32 | 0.205 | 12.8 |
| CCN(CC)CCCC(C)NCc1ccc(OC)c(OCc2ccccc2)c1 (stereo unspecified) | 0.264 | > 0.787 | > 10 |
| O=C(C1CC1)N1CCc2cc(Br)cc(S(=O)(=O)N3CCCCC3)c21 | 2.64 | 8.14 | > 100 |
| CCOc1ccc2[nH]c(=O)c(CN(CCN3CCCC3)C(=S)Nc3ccc(F)cc3)cc2c1 | 2.51 | 1.82 | > 100 |
| O=C(O)CSc1ccc(C(=O)NC2CCCCNC2=O)cn1 (stereo unspecified) | 0.263 | > 1.49 | > 10 |
| COc1ccc(C(=O)NCCc2ccc(C)cc2)cc1OC1CCN(C(C)=O)CC1 | 2.52 | > 9.06 | > 100 |
| COc1ccccc1C=CC1=NC(=Cc2ccc(SC)cc2)C(=O)O1 | 2.51 | 2.04 | > 100 |
| Cc1ccc(-c2nnc(NCc3ccccc3)c3ccccc23)cc1S(=O)(=O)NCC1CCCO1 (stereo unspecified) | 2.57 | 1.85 | > 100 |
| CCOc1ccc2nc(C)cc(Nc3ccc(C)c(Cl)c3)c2c1 | 0.348 | 0.24 | 13.6 |
| Clc1ccccc1CN1CCc2nc(N3CCCCC3)sc2C1 | 2.63 | 0.594 | > 100 |
| C=CCN1C(=O)/C(=C\c2ccccc2)C(C(=O)OC)=C1C | 0.262 | 0.589 | > 10 |
| COc1ccc(C(=O)N2c3cc(C)ccc3C(Nc3ccc(C)cc3)CC2C)cc1 (stereo unspecified) | 2.62 | > 12.5 | > 100 |
| COc1ccc(C2Nc3ccc(C(C)=O)cc3C3C=CCC32)cc1[N+](=O)[O-] (stereo unspecified) | 2.57 | 2.15 | > 100 |
| CCCCOc1ccc(C2C3CCCC=C3C(C#N)=C(N)C2(C#N)C#N)cc1 (stereo unspecified) | 1.48 | 3.47 | 57.7 |
| Fc1ccc2[nH]c3c(N4CCN(C(c5ccccc5)c5ccccc5)CC4)ncnc3c2c1 | 0.378 | 0.438 | 14.8 |
| COc1ccc(Nc2cc(C)nc(NCc3ccccc3)n2)cc1 | 0.427 | 0.151 | 16.7 |

| SMILES | EC50 [1] [µM] | EC50 [2] [µM] | CC50 [3] [µM] |
| --- | --- | --- | --- |
| Cc1ccc(S(=O)(=O)Nn2c(SCC(=O)NCCc3ccc(S(N)(=O)=O)cc3)nc3ccccc3c2=O)cc1 | 2.49 | > 12.5 | > 100 |
| Cc1ccc(O)c(NC(=O)c2cnn3c(C(F)(F)F)cc(-c4ccc(Br)cc4)nc23)c1 | 2.48 | 7.45 | > 100 |
| CCN1CCN(c2nc3ccccn3c(=O)c2/C=C2\SC(=S)N(C(C)C)C2=O)CC1 | 0.26 | 0.717 | > 10 |
| CCC(=O)NC(c1cccc([N+](=O)[O-])c1)c1ccc2cccnc2c1O (stereo unspecified) | 2.6 | 3.42 | > 100 |
| COc1ccc(-n2c(SC)nc3sc4c(c3c2=O)CCN(Cc2ccccc2)C4)cc1 | 2.55 | 2.48 | > 100 |
| COc1cc(-c2nc(-c3ccc(Sc4ccccc4)cc3)c(-c3ccccc3)[nH]2)cc(OC)c1O | 1.64 | 1.28 | 64.3 |
| COc1ccc2nc3cc(Cl)ccc3c(NCCN(CCN)CCN)c2c1 | 0.254 | 0.808 | > 10 |
| COc1ccc(Nc2ncnc3[nH]c(-c4cccc([N+](=O)[O-])c4)cc23)cc1 | 2.5 | 2.49 | > 100 |
| CN(CCCNc1ccnc2cc(Cl)ccc12)S(=O)(=O)c1cccc2cccnc12 | 0.249 | 0.188 | > 10 |
| OC(COc1ccccc1CNCCN1CCCC1)CN1CCc2ccccc2C1 (stereo unspecified) | 1.66 | 2.2 | 63.4 |
| CCc1ccc(C(=O)Oc2ccccc2-c2nc3ccccn3c2NC(C)(C)CC(C)(C)C)cc1 | 0.259 | 1.76 | > 10 |
| CC1CC(N(C(=O)c2ccc(Cl)cc2Cl)c2ccccc2)c2ccccc2N1C(=O)c1ccc(Cl)cc1 (stereo unspecified) | 2.53 | 2.77 | > 100 |
| CCC(C)Nc1nc(NC(C)CC)nc(N2CCCCCC2)n1 (stereo unspecified) | 0.382 | 0.479 | 14.7 |
| Cc1ccc2[nH]c3c(NCCN(C(C)C)C(C)C)ncnc3c2c1 | 0.42 | 0.306 | 16.3 |
| CCOC(=O)N1CCC(N2C(=O)c3ccccc3C2Nc2ccc(OCC)cc2)CC1 (stereo unspecified) | 2.58 | > 12.5 | > 100 |
| c1ccc(-c2cc(N3CCN(c4ccccn4)CC3)nc(-c3ccccn3)n2)nc1 | 0.0767 | 0.0729 | 3.03 |
| CN(C)CCn1cnc2sc3c(c2c1=O)CCC(NCc1cccc(Cl)c1)C3 (stereo unspecified) | 0.479 | 0.748 | 18.9 |
| CCCCC(CC)C(=O)N(C)CCCNc1ccnc2cc(Cl)ccc12 (stereo unspecified) | 0.233 | 0.514 | > 9.26 |
| COc1ccc([N+](=O)[O-])cc1NC(=O)C(C)Nc1ccc(N(C)C)cc1 (stereo unspecified) | 0.86 | 0.343 | 34.2 |
| O=C(NCc1ccccc1)C(c1ccc(F)cc1)N(Cc1ccco1)C(=O)c1cnccn1 (stereo unspecified) | 2.52 | > 8.94 | > 100 |
| COc1ccccc1CNC(=O)CCC1N=C2c3ccccc3N=C(SCC(=O)Nc3ccc(F)cc3)N2C1=O (stereo unspecified) | 2.51 | 5.29 | > 100 |
| CCC(c1nc2ccccc2c(=O)n1-c1ccccc1OC)N(CCc1ccccc1)C(=O)c1ccc(C)cc1 (stereo unspecified) | 0.174 | 0.418 | > 6.69 |
| Nc1cccc(C(=O)Nc2ccc(Oc3cccc(Oc4ccc(NC(=O)c5cccc(N)c5)cc4)c3)cc2)c1 | 2.55 | > 12 | > 100 |

| SMILES | EC50 [1] [µM] | EC50 [2] [µM] | CC50 [3] [µM] |
| --- | --- | --- | --- |
| CCOc1ccccc1C(=O)NC(Nc1sc2c(c1C(N)=O)CCCC2)(C(F)(F)F)C(F)(F)F | 2.49 | > 7.5 | > 100 |
| O=C1CSC(=NN=Cc2cccnc2)N1c1ccccc1 | 2.49 | > 12.5 | > 100 |
| CCCC(CCC)C(=O)Nc1ccc2c(c1)N(C(=O)CCCl)c1ccccc1CC2 | 2.58 | 0.416 | > 100 |
| Cc1cc(NCCCN(C)C)c2ccccc2n1 | 1.38 | 0.716 | 53.2 |
| COc1ccc(C2C(C(=O)c3ccccc3)=C(O)C(=O)N2c2cccc(Cl)c2)c(OC)c1 (stereo unspecified) | 2.59 | > 12.5 | > 100 |
| Cc1ccc(C)n1-c1ccc(N(C)C)cc1 | 1.33 | 2.93 | 50.9 |
| CCOc1ccc2nc(C)cc(Nc3ccc(Br)cc3)c2c1 | 0.182 | 0.114 | 7.29 |
| CCCCN1C(=O)N(c2ccccc2C)C(C)(O)CC1(C)C (stereo unspecified) | > 0.261 | > 1.52 | > 10 |
| CCCCCCc1ccc(/C(C=[N+](C)C)=C\N(C)C)cc1 | 0.26 | 0.335 | > 10 |
| COc1cc(OC)cc(C(=O)N(C)CCCNc2ccnc3cc(Cl)ccc23)c1 | 0.116 | 0.143 | 4.7 |
| CCC(c1nc2ccccc2c(=O)n1-c1ccccc1OC)N(CCc1ccccc1)C(=O)c1ccc(F)cc1 (stereo unspecified) | 0.18 | 1.02 | > 7.25 |
| CCCC[C@@H](C)C(O)[C@H]1C(=O)N[C@@H](CC)C(=O)N(C)CC(=O)N(C)[C@@H](CC(C)C)C(=O)N[C@@H](C(C)C)C(=O)N(C)[C@@H](CC(C)C)C(=O)N[C@@H](C)C(=O)N[C@H](C)C(=O)N(C)[C@@H](CC(C)C)C(=O)N(C)[C@@H](CC(C)C)C(=O)N(C)[C@@H](C(C)C)C(=O)N1C (stereo partly specified) | 0.251 | 0.859 | > 10 |
| O=C(NCCN(CCNc1ccnc2cc(Cl)ccc12)CCNc1ccnc2cc(Cl)ccc12)C1CCC1 | 0.255 | 0.207 | > 10 |
| COC(=O)c1ccc(C2C3=C(O)CC(c4cccs4)CC3=Nc3ccccc3N2C(=O)c2ccccc2)cc1 (stereo unspecified) | 0.625 | 0.436 | 25 |
| O=C(O)CC/C(=C1/C=C(c2ccc(Cl)cc2)NC1=O)c1ccc(Cl)cc1 | 0.256 | > 1.65 | > 10 |
| O=C(Nc1ccc(-c2cn3cccnc3n2)cc1)c1ccccc1I | 2.62 | > 12.5 | > 100 |
| CCCCn1nccc1Nc1cc(C)c(C#N)c2nc3ccccc3n12 | 2.61 | 4.42 | > 100 |
| Cc1cccn2c(NCc3ccccc3)c(-c3ccccc3OC(=O)CCCCl)nc12 | 0.253 | 0.781 | > 10 |
| O=C(NCCCNC(=O)Nc1cccc(C2=NCCN2)c1)Nc1cccc(C2=NCCN2)c1 | 0.256 | 0.326 | > 10 |
| C=CC1CN2CCC1CC2[C@@H](OC(=O)/C=C/c1ccc(Cl)cc1)c1ccnc2ccc(OC)cc12 (stereo partly specified) | 0.252 | 0.272 | > 10 |
| Cc1ccc(NC(=O)C2CC3c4ccccc4C2c2ccccc23)cc1 (stereo unspecified) | 2.55 | > 12.5 | > 100 |
